Our source for the CC50 values is patent US12398124B2, “Pyrrolobenzodiazepine dimer prodrug and ligand-linker conjugate compound of the same” (priority 2017, dated 2025).

Like-named read-outs stand apart in the source and are kept apart here. Where a SMILES comes first, the peptide text is derived from it. [ ]: non-standard residue; d: D form. Dolaproine = CO[C@@H]([C@@H]1CCCN1)[C@@H](C)C(=O)O; Dil = CC[C@H](C)[C@H](NC)[C@@H](CC(=O)O)OC; NMeV = CN[C@H](C(=O)O)C(C)C

One may read the CC50 as the concentration at which the toxic effect on the cells reaches its halfway point.

What all share (experiment): Cytotoxicity in vitro (cell proliferation inhibition, SRB dye)
Holding throughout (type): cell-based, human
In general terms: Sulforhodamine B stains cellular protein and so reports cell mass.

One series relates to SK-BR3 (HER2 positive). As to conditions: SK-BR3 breast cancer cells. The protocol: (§1) The cell proliferation inhibitory activity of the drug and ADCs presented in the following Table 2 on cancer cell lines was measured. As the cancer cell lines, commercially available human breast cancer cell lines MCF-7 (HER2 negative to normal), SK-BR3 (HER2 positive), and JIMT-1 (HER2 positive) were used. MMAF-OMe was used as the drug and the ADCs in Table 1 were used as the ADC. Each of the cancer cell lines was seeded in a 96-well plate by from 5,000 to 13,000 per well for the 72 hour treatment group and from 1,500 to 3,000 per well for the 168 hour treatment group, incubated for 24 hours, and then treated with antibodies and ADCs at a concentration of from 0.0051 to 33.33 nM or from 0.0015 to 10.0 nM (three times serial dilutions) and drugs at a concentration of from 0.023 to 50 nM (three times serial dilutions). After 72/168 hours, the number of living cells was quantified using SRB (Sulforhodamine B) dye.

The test system of a further series is JIMT-1 (HER2 positive). As to conditions: JIMT-1 breast cancer cells. The protocol:
as §1

The subject of series [1] is MCF-7 (HER2 negative to normal). Particulars: MCF7 breast cancer cells. The protocol: as §1

Consider `CC[C@H](C)[C@@H]([C@@H](CC(=O)N1CCC[C@H]1[C@H](OC)[C@@H](C)C(=O)N[C@@H](Cc1ccccc1)C(=O)OC)OC)N(C)C(=O)[C@@H](NC(=O)[C@@H](NC)C(C)C)C(C)C` [MMAF-OMe] (H-[NMeV]V[Dil][Dolaproine]F-OMe), for which the CC50 in the series on SK-BR3 (HER2 positive) (72 hr treatment, read-out: CC50 (nM) SK-BR3 72 hr) turned out to be 0.14 nM; with SK-BR3 (HER2 positive) (168 hr treatment, read-out: CC50 (nM) SK-BR3 168 hr), 0.06 nM; in the series with JIMT-1 (HER2 positive) (72 hr treatment, read-out: CC50 (nM) JIMT-1 72 hr), 0.14 nM; with JIMT-1 (HER2 positive) (168 hr treatment, read-out: CC50 (nM) JIMT-1 168 hr), 0.06 nM; in series [1] (72 hr treatment, read-out: CC50 (nM) MCF7 72 hr), 0.84 nM; in series [1] (168 hr treatment, read-out: CC50 (nM) MCF7 168 hr) it was 0.19 nM.
